Test results as given in patent US7923465B2, “Cannabinoid receptor ligands, pharmaceutical compositions containing them, and process for their preparation” (priority 2005, dated 2011).
Where a name gives a salt, the structure may show the parent alone. Read-outs that look alike come from different tables or passages of the source.

How the values were obtained:
CB1 = CB1 (Rattus norvegicus, UniProt P20272); assay: Rat CB1 receptor binding using brain membrane, [3H]SR141716A displacement (Protocol I); design: CB1 receptor present in a rat brain membrane preparation; from tissue; host or cells: rat brain membrane; inhibition: dose or concentration left out as unconfirmed; settings: for inhibition: 1 h
Experimental: I. In Vitro Protocol for Rat CB1 Receptor Binding Using Brain Membrane
In this assay, [^3H]SR141716A (5-(4-chlorophenyl)-1-(2,4-dichlorophenyl)-4-methyl-N-(1-piperidyl)pyrazole-3-carboxamide) was used to bind the CB1 receptor present in a rat brain membrane preparation which can be displaced by unlabeled ligands having affinity to the CB1 receptor.
The assay was performed according to the modified method of Thomas et al., 1998 (JPET 285: 285-292). The total reaction mixture ([…]) contained Tris-BSA buffer (50 mM Tris, pH 7.4 with 1.5% BSA) or unlabeled SR141716A […] or test samples […], [^3H] SR141716A (2 nM) and […] of rat brain membrane. The non-specific binding was defined by […] of SR141716A. The assay mixture was incubated at 37° C. for 1 hour. The reaction was then stopped by rapid filtration under vacuum using Whatman GF/B-96 micro filter plate. A scintillation cocktail was added and radioactive counts were measured using a Topcount beta scintillation counter.
The standard and test sample dilutions were made in an assay buffer containing either ethanol or DMSO at a final concentration of 1%.
(§1) The percent (%) displacement by a test ligand was calculated by comparing the specific bound values.

hCB2 = hCB2 (Homo sapiens, UniProt P34972); assay: In vitro binding assay using hCB2-CHO membranes, [3H]-CP-55,940 displacement (Protocol IV); design: expressed in transfected cells; host or cells: CHO (hCB2-CHO, generated in-house); settings: for inhibition at 0.3 µM: 1 h, read-out: % Displacement Protocol IV
Experimental: IV. Protocol for In Vitro Assay Using hCB2-CHO Membranes:
In this assay, [^3H]-CP-55,940 was used as the radioligand to bind human CB2 receptor expressed on the membranes from CHO cells (hCB2-CHO cell line was generated in-house) which can be displaced by unlabeled ligands having affinity to the CB2 receptor.
The assay was performed according to the modified method of Ross et al., 1999 (Br. J. Pharmacol. 128, 735-743). The reaction was set up in a total volume of 200 μl in PEI (0.2%) precoated Millipore GFB filter plates. 1 mM stocks of test compounds were prepared in DMSO and tested at a final concentration of 300 nM. The non-specific binding was determined by 0.5 μM CP-55, 940. The total reaction mixture contained Tris-BSA buffer (50 mM Tris, 5 mM MgCl2, 1 mM EDTA, pH 7.4 with 0.1% BSA), unlabelled CP-55, 940 (0.5 μM) or test samples, [^3H]-CP-55, 940 (0.75 nM) and 25-50 μg of human CB2 receptor preparation. The assay mixture (with or without the test compound) was incubated at 30° C. for 1 hour. The reaction was stopped by rapid filtration under vacuum and the radioactivity on the filters was measured by liquid scintillation counting.
as §1

[1] = read-out: % Displacement Protocol I, rat brain membrane, [3H]SR141716A displacement
[2] = rat brain membrane, [3H]SR141716A displacement, read-out: % Displacement Protocol I
[3] = rat brain membrane, [3H]SR141716A displacement
[4] = hCB2-CHO membranes, [3H]-CP-55,940 displacement

Chain of hCB2 (P34972 whole entry): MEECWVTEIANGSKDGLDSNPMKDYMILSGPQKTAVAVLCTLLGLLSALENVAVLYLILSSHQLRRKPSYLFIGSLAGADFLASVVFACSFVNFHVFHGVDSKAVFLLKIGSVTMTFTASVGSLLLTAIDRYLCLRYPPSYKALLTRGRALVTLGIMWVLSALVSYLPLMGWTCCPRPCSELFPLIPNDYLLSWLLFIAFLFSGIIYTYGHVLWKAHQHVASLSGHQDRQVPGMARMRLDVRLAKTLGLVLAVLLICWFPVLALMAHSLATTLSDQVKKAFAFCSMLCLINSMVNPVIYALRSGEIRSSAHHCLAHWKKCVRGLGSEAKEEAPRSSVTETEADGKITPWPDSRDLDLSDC
Chain of CB1 (P20272 whole entry): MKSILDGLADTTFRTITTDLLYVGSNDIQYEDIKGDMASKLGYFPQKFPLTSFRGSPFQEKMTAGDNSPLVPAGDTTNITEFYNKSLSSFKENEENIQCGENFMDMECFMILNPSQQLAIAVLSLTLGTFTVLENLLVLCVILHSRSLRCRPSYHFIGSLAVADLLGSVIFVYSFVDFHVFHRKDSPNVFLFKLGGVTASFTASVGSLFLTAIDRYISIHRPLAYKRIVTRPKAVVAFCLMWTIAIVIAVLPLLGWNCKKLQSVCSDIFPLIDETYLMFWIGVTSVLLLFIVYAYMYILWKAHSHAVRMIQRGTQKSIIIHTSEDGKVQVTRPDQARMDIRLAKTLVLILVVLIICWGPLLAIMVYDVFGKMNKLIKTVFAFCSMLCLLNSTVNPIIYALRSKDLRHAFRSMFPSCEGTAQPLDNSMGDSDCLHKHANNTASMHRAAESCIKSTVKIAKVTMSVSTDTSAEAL

Row | SMILES | melting point [°C] | inhibition (CB1; [2]) [%] | other results
1 | O=C(NCc1ccc(C(F)(F)F)cc1)c1nn(-c2ccc(Cl)cc2)c2c1C1CC3CC(C1)CC2C3 [Example 116, N(7)-(4-Trifluoromethylbenzyl)-5-(4-chlorophenyl)-5,6-diazatetracyclo[7.3.1.1^3,11.0^4,8]tetradeca-4(8),6-diene-7-carboxamide] |  |  | inhibition (CB1; [1]): 24.9%
2 | O=C(NNc1ccccc1Cl)c1nn(-c2ccc(Cl)cc2)c2c1C1CC3CC(C1)CC2C3 [Example 124, N(7)-(2-Chlorophenylamino)-5-(4-chlorophenyl)-5,6-diazatetracyclo[7.3.1.1^3,11.0^4,8]tetradeca-4(8),6-diene-7-carboxamide hydrochloride] |  |  | inhibition (CB1; [1]): 80.1%
3 | O=C(NNc1ccc(F)cc1)c1nn(-c2ccc(Cl)cc2)c2c1C1CC3CC(C1)CC2C3 [Example 130, N(7)-(4-Fluorophenylamino)-5-(4-chlorophenyl)-5,6-diazatetracyclo[7.3.1.1^3,11.0^4,8]tetradeca-4(8),6-diene-7-carboxamide] | 125 to 127 | 60.6 | 
4 | O=C(NNc1cccc(F)c1)c1nn(-c2ccc(Cl)cc2)c2c1C1CC3CC(C1)CC2C3 [Example 133, N(7)-(3-fluorophenylamino)-5-(4-chlorophenyl)-5,6-diazatetracyclo[7.3.1.1^3,11.0^4,8]tetradeca-4(8),6-diene-7-carboxamide] | 203 | 59.7 | 
5 | O=C(c1nn(-c2ccc(Cl)cc2)c2c1C1CC3CC(C1)CC2C3)N1CCCCC1 [Example 141, 7-(4′-Chlorophenyl)-6,7-diazatetracyclo[7.3.1.1^3,11.0^4,8]tetradeca-4(8)-5-dien-5-yl-piperidinomethanone] |  |  | % Displacement Protocol I (CB1; [3]): 17%
6 | O=C(Nc1ccccc1)c1nn(-c2ccc(Cl)cc2)c2c1C1CC3CC(C1)CC2C3 [Example 142, N(7)-Phenyl-5-(4′-chlorophenyl)-5,6-diazatetracyclo[7.3.1.1^3,11.0^4,8]tetradeca-4(8)-6-diene-7-carboxamide] |  |  | % Displacement Protocol IV (hCB2; [4]): 9.86%; % Displacement Protocol I (CB1; [3]): 25%
7 | O=C(NNc1ccc(Cl)cc1Cl)c1nn(-c2ccccc2Cl)c2c1C1CC3CC(C1)CC2C3 [Example 181, N(7)-(2,4-Dichlorophenylamino)-5-(2-chlorophenyl)-5,6-diazatetracyclo[7.3.1.1^3,11.0^4,8]tetradeca-4(8),6-diene-7-carboxamide] | 233 to 240 | 16.4 | 
8 | O=C(NCc1ccccc1)c1nn(-c2ccccc2)c2c1C1CCC2C1 (stereo not shown) [Example 203, N(3)-Benzyl-1-phenyl-4,5,6,7-tetrahydro-1H-4,7-methano-indazole-3-carboxamide] | 115 | -10.4 | 
9 | O=C(NCc1ccccc1)c1nn(-c2ccccc2Cl)c2c1C1CCC2C1 (stereo not shown) [Example 207, N(3)-Benzyl-1-(2-chlorophenyl)-4,5,6,7-tetrahydro-1H-4,7-methano-indazole-3-carboxamide] |  | -1.2 | 
10 | O=C(Nc1cccc(Br)c1)c1n[nH]c2c1C1(c3ccc(Cl)cc3)CCC2C1 (stereo not shown) [Example 217, N(3)-(3-Bromophenyl)-4-(4-chlorophenyl)-4,5,6,7-tetrahydro-1H-4,7-methano-indazole-3-carboxamide] |  | 20.5 | inhibition at 0.3 µM (hCB2; [4]): 10.7%
11 | COc1ccccc1NC(=O)c1nn(-c2ccc(Cl)cc2)c2c1C1CCC2C1 (stereo not shown) [Example 218, N(3)-(2-Methoxyphenyl)-1-(4-chlorophenyl)-4,5,6,7-tetrahydro-1H-4,7-methano-indazole-3-carboxamide] | 149 to 151 | 29.9 | 
12 | O=C(NCCc1ccccc1)c1nn(-c2ccc(Cl)cc2Cl)c2c1C1CCC2C1 (stereo not shown) [Example 254, N(3)-(2-phenylethyl)-1-(2,4-dichlorophenyl)-4,5,6,7-tetrahydro-1H-4,7-methano-indazole-3-carboxamide] |  | 9.1 | 
13 | O=C(NCCc1ccc(F)cc1)c1nn(-c2ccc(Cl)cc2Cl)c2c1C1CCC2C1 (stereo not shown) [Example 255, N(3)-[2-(4-fluorophenyl)ethyl]-1-(2,4-dichlorophenyl)-4,5,6,7-tetrahydro-1H-4,7-methano-indazole-3-carboxamide] |  | 23.9 | 
14 | O=C(NC1CC1)c1nn(-c2ccc(F)cc2F)c2c1C1CCC2C1 (stereo not shown) [Example 317, N(3)-Cyclopropyl-1-(2,4-difluorophenyl)-4,5,6,7-tetrahydro-1H-4,7-methano-indazole-3-carboxamide] | 59 to 61 |  | inhibition at 0.3 µM (hCB2): 16.9%
15 | O=C(NCC1CCCO1)c1nn(-c2ccc(F)cc2F)c2c1C1CCC2C1 (stereo not shown) [Example 322, N(3)-(Tetrahydro-2-furanylmethyl)-1-(2,4-difluorophenyl)-4,5,6,7-tetrahydro-1H-4,7-methano-indazole-3-carboxamide] | 91 to 93 |  | inhibition at 0.3 µM (hCB2): 43.4%
16 | CC12CCC(c3c(C(=O)NNc4ccccc4F)nn(-c4ccc(Cl)cc4Cl)c31)C2(C)C (stereo not shown) [Example 402, N(3)-[(2-Fluorophenyl)amino]-1-(2,4-Dichlorophenyl)-7,8,8-trimethyl-4,5,6,7-tetrahydro-1H-4,7-methano-indazole-3-carboxamide] | 72 to 80 |  | inhibition at 0.3 µM (hCB2; [4]): 2.66%
17 | CC12CCC(c3c(C(=O)NNc4ncccc4Cl)nn(-c4ccc(Cl)cc4Cl)c31)C2(C)C (stereo not shown) [Example 404, N(3)-[(3-chloropyridin-2-yl)amino]-1-(2,4-Dichlorophenyl)-7,8,8-trimethyl-4,5,6,7-tetrahydro-1H-4,7-methano-indazole-3-carboxamide] | 142 to 145 |  | inhibition at 0.3 µM (hCB2; [4]): 23.8%
18 | CC12CCC(c3c(C(=O)NC45CC6CC(CC(C6)C4)C5)nn(-c4ccc(F)cc4F)c31)C2(C)C (stereo not shown) [Example 405, N(3)-(Adamantan-1-yl)-1-(2,4-difluorophenyl)-7,8,8-trimethyl-4,5,6,7-tetrahydro-1H-4,7-methano-indazole-3-carboxamide] | 162 to 165 |  | inhibition at 0.3 µM (hCB2): 87.9%
19 | CC12CCC(C1)C(C)(C)C2NC(=O)c1nn(-c2ccc(F)cc2F)c2c1C1CCC2(C)C1(C)C (stereo not shown) [Example 406, N(3)-(1,3,3-Trimethylbicyclo[2.2.1]hept-2-yl)-1-(2,4-difluorophenyl)-7,8,8-trimethyl-4,5,6,7-tetrahydro-1H-4,7-methano-indazole-3-carboxamide] | 171 to 173 |  | inhibition at 0.3 µM (hCB2): 94.3%
20 | COC(=O)[C@H](NC(=O)c1nn(-c2ccc(F)cc2F)c2c1C1CCC2(C)C1(C)C)c1ccccc1 (stereo partly drawn) [Example 409, Methyl (2R)-2-[1-(2,4-difluorophenyl)-7,8,8-trimethyl-4,5,6,7-tetrahydro-1H-4,7-methano-indazole-3-carboxamido]-2-phenylethanoate] | 107 to 109 |  | inhibition at 0.3 µM (hCB2; [4]): 65.3%
21 | CC(C)(NC(=O)c1nn(-c2ccc(F)cc2F)c2c1C1CCC2c2ccccc21)c1ccccc1 (stereo not shown) [Example 509, N12-(1-Methyl-1-phenylethyl)-10-(2,4-difluorophenyl)-10,11-diazatetracyclo[6.5.2.0^2,7.0^9,13]pentadeca-2,4,6,9(13),11-pentaene-12-carboxamide] | 175 to 178 |  | inhibition at 0.3 µM (hCB2): 67.2%
22 | O=C(NN1CCCCC1)c1nn(-c2ccc(Cl)cc2Cl)c2c1C1c3ccccc3C2C2C(=O)N(c3ccc(Cl)cc3)C(=O)C12 (stereo not shown) [Example 602, N(12)-Piperidino-16-(4-chlorophenyl)-10-(2,4-dichlorophenyl)-15,17-dioxo-10,11,16-triazapentacyclo[6.5.2.0^2,7.0^9,13.0^14,18]octadeca-2,4,6,9(13),11-pentaene-12-carboxamide] |  |  | % Displacement Protocol IV (hCB2; [4]): 16.4%; % Displacement Protocol I (CB1; [3]): 4.1%
23 | CCC(C)(C)NC(=O)c1nn(-c2ccc(F)cc2F)c2c1C1CCC2CC1 [Example 802, N(5)-(tert-Pentyl)-3-(2,4-difluorophenyl)-3,4-diazatricyclo[5.2.2.0^2,6]undeca-2(6),4-diene-5-carboxamide] | 102 to 105 |  | inhibition at 0.3 µM (hCB2): 100%
